Source: ChEMBL document CHEMBL1201862, “PubChem BioAssay data set” (2004)
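Five compound concentrations were applied to cells in 96-well plates for 48 hours; endpoints were derived by simple linear interpolation of the resulting dose-response curve. Abbreviation: GI50, concentration required for 50% inhibition of growth.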 Activity calls are given as the source filed them. Rule as the data show it: active = GI50 up to about 1.1 µM and inactive = higher.

How the values were obtained:
Test in all cases: NCI tumour cell line growth inhibition, 48 h
[1] = system: OVCAR-8
[2] = system: U-251
[3] = system: CAKI-1
[4] = system: NCI/ADR-RES
[5] = system: A549
[6] = system: EKVX
[7] = system: NCI-H522
[8] = system: MCF7
[9] = system: HCT-15
[10] = system: SK-MEL-5
[11] = system: OVCAR-4
[12] = system: MDA-MB-435
[13] = system: COLO 205
[14] = system: SK-OV-3
[15] = system: SR
[16] = system: RPMI-8226
[17] = system: M14
[18] = system: MDA-N
[19] = system: SF-295
[20] = system: HOP-62
[21] = system: OVCAR-5
[22] = system: UACC-257
[23] = system: NCI-H23
[24] = system: TK-10
[25] = system: Hs-578T
[26] = system: PC-3
[27] = system: LOX IMVI
[28] = system: ACHN
[29] = system: SNB-75
[30] = system: MOLT-4
[31] = system: 786-0
[32] = system: SK-MEL-2
[33] = system: SNB-19
[34] = system: HCT-116
[35] = system: Malme-3M
[36] = system: IGROV-1
[37] = system: KM12
[38] = system: K562
[39] = system: SW-620
[40] = system: T47D
[41] = system: UACC-62
[42] = system: SK-MEL-28
[43] = system: SF-268
[44] = system: HCC 2998
[45] = system: A498
[46] = system: RXF 393
[47] = system: CCRF-CEM
[48] = system: BT-549
[49] = system: HT-29
[50] = system: HOP-92
[51] = system: DU-145
[52] = system: HL-60
[53] = system: MDA-MB-231
[54] = system: SN12C
[55] = system: NCI-H226
[56] = system: SF-539
[57] = system: NCI-H460
[58] = system: UO-31
[59] = system: OVCAR-3

CCN(CC)c1nc(=O)c(C(=O)C(C)(C)C)c(C(C)(C)C)o1
GI50 [1]: > 100 µM (inactive) | GI50 [2]: > 100 µM (inactive) | GI50 [3]: > 100 µM (inactive) | GI50 [4]: > 100 µM (inactive) | GI50 [5]: > 100 µM (inactive) | GI50 [6]: > 100 µM (inactive) | GI50 [7]: > 100 µM (inactive) | GI50 [8]: > 100 µM (inactive) | GI50 [9]: > 100 µM | GI50 [10]: > 100 µM (inactive) | GI50 [11]: > 100 µM (inactive) | GI50 [12]: > 100 µM (inactive) | GI50 [13]: > 100 µM (inactive) | GI50 [14]: > 100 µM (inactive) | GI50 [15]: > 100 µM (inactive) | GI50 [16]: > 100 µM (inactive) | GI50 [17]: > 100 µM (inactive) | GI50 [18]: > 100 µM (inactive) | GI50 [19]: > 100 µM (inactive) | GI50 [20]: > 100 µM (inactive) | GI50 [21]: > 100 µM (inactive) | GI50 [22]: > 100 µM (inactive) | GI50 [23]: > 100 µM (inactive) | GI50 [24]: > 100 µM (inactive) | GI50 [25]: > 100 µM (inactive) | GI50 [26]: > 100 µM (inactive) | GI50 [27]: > 100 µM (inactive) | GI50 [28]: > 100 µM (inactive) | GI50 [29]: > 100 µM (inactive) | GI50 [30]: > 100 µM (inactive) | GI50 [31]: > 100 µM (inactive) | GI50 [32]: > 100 µM (inactive) | GI50 [33]: 98.4 µM (inactive) | GI50 [34]: > 100 µM (inactive) | GI50 [35]: > 100 µM (inactive) | GI50 [36]: > 100 µM (inactive) | GI50 [37]: > 100 µM (inactive) | GI50 [38]: > 100 µM (inactive) | GI50 [39]: > 100 µM (inactive) | GI50 [40]: > 100 µM (inactive) | GI50 [41]: > 100 µM (inactive) | GI50 [42]: > 100 µM (inactive) | GI50 [43]: > 100 µM (inactive) | GI50 [44]: > 100 µM (inactive) | GI50 [45]: > 100 µM (inactive) | GI50 [46]: > 100 µM (inactive) | GI50 [47]: > 100 µM (inactive) | GI50 [48]: > 100 µM (inactive) | GI50 [49]: > 100 µM (inactive) | GI50 [50]: > 100 µM (inactive) | GI50 [51]: > 100 µM (inactive) | GI50 [52]: > 100 µM (inactive) | GI50 [53]: > 100 µM (inactive) | GI50 [54]: > 100 µM (inactive) | GI50 [55]: > 100 µM (inactive) | GI50 [56]: > 100 µM (inactive) | GI50 [57]: > 100 µM (inactive)

Nc1cc(Cl)cc2cc(Cl)cnc12
GI50 [1]: > 100 µM (inactive) | GI50 [2]: > 100 µM (inactive) | GI50 [3]: > 100 µM (inactive) | GI50 [4]: > 100 µM (inactive) | GI50 [5]: > 100 µM (inactive) | GI50 [6]: 39.9 µM (inactive) | GI50 [7]: 57 µM (inactive) | GI50 [8]: > 100 µM (inactive) | GI50 [9]: > 100 µM | GI50 [10]: > 100 µM (inactive) | GI50 [11]: > 100 µM (inactive) | GI50 [12]: > 100 µM (inactive) | GI50 [13]: > 100 µM (inactive) | GI50 [14]: > 100 µM (inactive) | GI50 [15]: 38 µM (inactive) | GI50 [16]: > 100 µM (inactive) | GI50 [17]: > 100 µM (inactive) | GI50 [18]: > 100 µM (inactive) | GI50 [58]: 34.8 µM (inactive) | GI50 [19]: > 100 µM (inactive) | GI50 [20]: > 100 µM (inactive) | GI50 [21]: > 100 µM (inactive) | GI50 [22]: > 100 µM (inactive) | GI50 [23]: > 100 µM (inactive) | GI50 [24]: > 100 µM (inactive) | GI50 [25]: 89.7 µM (inactive) | GI50 [26]: 72.3 µM (inactive) | GI50 [27]: > 100 µM (inactive) | GI50 [28]: > 100 µM (inactive) | GI50 [29]: 40.3 µM (inactive) | GI50 [30]: 44.5 µM (inactive) | GI50 [31]: > 100 µM (inactive) | GI50 [33]: > 100 µM (inactive) | GI50 [34]: > 100 µM (inactive) | GI50 [35]: > 100 µM (inactive) | GI50 [36]: 93.1 µM (inactive) | GI50 [37]: > 100 µM (inactive) | GI50 [38]: > 100 µM (inactive) | GI50 [39]: > 100 µM (inactive) | GI50 [40]: 26.4 µM (inactive) | GI50 [41]: 75.2 µM (inactive) | GI50 [42]: > 100 µM (inactive) | GI50 [43]: 82.6 µM (inactive) | GI50 [44]: > 100 µM (inactive) | GI50 [45]: 49 µM (inactive) | GI50 [46]: > 100 µM (inactive) | GI50 [47]: 14 µM (inactive) | GI50 [59]: > 100 µM (inactive) | GI50 [48]: > 100 µM (inactive) | GI50 [49]: > 100 µM (inactive) | GI50 [50]: 31.8 µM (inactive) | GI50 [51]: > 100 µM (inactive) | GI50 [52]: 43.1 µM (inactive) | GI50 [53]: > 100 µM (inactive) | GI50 [54]: > 100 µM (inactive) | GI50 [55]: > 100 µM (inactive) | GI50 [56]: > 100 µM (inactive) | GI50 [57]: > 100 µM (inactive)

COc1ccc(CNc2nc3ccccc3nc2C(=O)O)cc1OC
GI50 [1]: > 100 µM (inactive) | GI50 [2]: 97.7 µM (inactive) | GI50 [3]: > 100 µM (inactive) | GI50 [4]: 26.7 µM (inactive) | GI50 [5]: > 100 µM (inactive) | GI50 [6]: > 100 µM (inactive) | GI50 [7]: > 100 µM (inactive) | GI50 [8]: > 100 µM (inactive) | GI50 [9]: 83.8 µM | GI50 [10]: > 100 µM (inactive) | GI50 [11]: > 100 µM (inactive) | GI50 [12]: > 100 µM (inactive) | GI50 [13]: > 100 µM (inactive) | GI50 [14]: > 100 µM (inactive) | GI50 [15]: > 100 µM (inactive) | GI50 [16]: > 100 µM (inactive) | GI50 [18]: > 100 µM (inactive) | GI50 [58]: 36.5 µM (inactive) | GI50 [19]: > 100 µM (inactive) | GI50 [20]: > 100 µM (inactive) | GI50 [22]: > 100 µM (inactive) | GI50 [23]: > 100 µM (inactive) | GI50 [24]: > 100 µM (inactive) | GI50 [25]: > 100 µM (inactive) | GI50 [26]: > 100 µM (inactive) | GI50 [27]: > 100 µM (inactive) | GI50 [28]: > 100 µM (inactive) | GI50 [29]: > 100 µM (inactive) | GI50 [30]: > 100 µM (inactive) | GI50 [31]: > 100 µM (inactive) | GI50 [34]: > 100 µM (inactive) | GI50 [35]: > 100 µM (inactive) | GI50 [36]: > 100 µM (inactive) | GI50 [37]: > 100 µM (inactive) | GI50 [38]: > 100 µM (inactive) | GI50 [39]: > 100 µM (inactive) | GI50 [40]: > 100 µM (inactive) | GI50 [41]: > 100 µM (inactive) | GI50 [42]: > 100 µM (inactive) | GI50 [43]: > 100 µM (inactive) | GI50 [44]: > 100 µM (inactive) | GI50 [45]: 91.2 µM (inactive) | GI50 [46]: > 100 µM (inactive) | GI50 [47]: > 100 µM (inactive) | GI50 [59]: > 100 µM (inactive) | GI50 [48]: 30.7 µM (inactive) | GI50 [49]: > 100 µM (inactive) | GI50 [50]: 17.1 µM (inactive) | GI50 [51]: > 100 µM (inactive) | GI50 [52]: > 100 µM (inactive) | GI50 [53]: > 100 µM (inactive) | GI50 [54]: 91.6 µM (inactive) | GI50 [55]: > 100 µM (inactive) | GI50 [56]: > 100 µM (inactive) | GI50 [57]: > 100 µM (inactive)
